Source: ChEMBL document CHEMBL1201862, “PubChem BioAssay data set” (2004)
Calls of active or inactive are those of the source. No rule for the calls is given here.

What was measured:
[1] = target: T1, Exodeoxyribonuclease V (Escherichia coli (strain K12), UniProt P04993+P07648+P08394); assay: E. coli RecBCD inhibitors, dose response, counter-screen for AddAB inhibitor project, absorbance, V66 E. coli, mutant T4 phage (AID 492957); type: functional, cell-based, Escherichia coli str. K-12 substr. MG1655
T1 sequence (P04993 whole entry): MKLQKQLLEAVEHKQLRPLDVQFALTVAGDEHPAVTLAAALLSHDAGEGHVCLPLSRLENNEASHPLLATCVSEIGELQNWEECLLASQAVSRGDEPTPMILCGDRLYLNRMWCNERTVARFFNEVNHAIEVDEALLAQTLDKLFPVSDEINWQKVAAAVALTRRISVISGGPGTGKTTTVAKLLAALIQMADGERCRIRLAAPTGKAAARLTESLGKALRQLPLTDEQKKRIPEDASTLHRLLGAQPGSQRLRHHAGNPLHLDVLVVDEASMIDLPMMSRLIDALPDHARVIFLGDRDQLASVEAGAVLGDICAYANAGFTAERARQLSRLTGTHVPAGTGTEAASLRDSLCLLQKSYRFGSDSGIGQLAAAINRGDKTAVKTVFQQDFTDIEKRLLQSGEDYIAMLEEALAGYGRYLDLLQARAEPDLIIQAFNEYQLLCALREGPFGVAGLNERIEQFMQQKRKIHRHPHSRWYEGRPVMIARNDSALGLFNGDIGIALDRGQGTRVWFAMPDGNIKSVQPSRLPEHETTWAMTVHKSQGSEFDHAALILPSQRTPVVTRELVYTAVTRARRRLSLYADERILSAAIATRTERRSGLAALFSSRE
T1 sequence (P07648 whole entry): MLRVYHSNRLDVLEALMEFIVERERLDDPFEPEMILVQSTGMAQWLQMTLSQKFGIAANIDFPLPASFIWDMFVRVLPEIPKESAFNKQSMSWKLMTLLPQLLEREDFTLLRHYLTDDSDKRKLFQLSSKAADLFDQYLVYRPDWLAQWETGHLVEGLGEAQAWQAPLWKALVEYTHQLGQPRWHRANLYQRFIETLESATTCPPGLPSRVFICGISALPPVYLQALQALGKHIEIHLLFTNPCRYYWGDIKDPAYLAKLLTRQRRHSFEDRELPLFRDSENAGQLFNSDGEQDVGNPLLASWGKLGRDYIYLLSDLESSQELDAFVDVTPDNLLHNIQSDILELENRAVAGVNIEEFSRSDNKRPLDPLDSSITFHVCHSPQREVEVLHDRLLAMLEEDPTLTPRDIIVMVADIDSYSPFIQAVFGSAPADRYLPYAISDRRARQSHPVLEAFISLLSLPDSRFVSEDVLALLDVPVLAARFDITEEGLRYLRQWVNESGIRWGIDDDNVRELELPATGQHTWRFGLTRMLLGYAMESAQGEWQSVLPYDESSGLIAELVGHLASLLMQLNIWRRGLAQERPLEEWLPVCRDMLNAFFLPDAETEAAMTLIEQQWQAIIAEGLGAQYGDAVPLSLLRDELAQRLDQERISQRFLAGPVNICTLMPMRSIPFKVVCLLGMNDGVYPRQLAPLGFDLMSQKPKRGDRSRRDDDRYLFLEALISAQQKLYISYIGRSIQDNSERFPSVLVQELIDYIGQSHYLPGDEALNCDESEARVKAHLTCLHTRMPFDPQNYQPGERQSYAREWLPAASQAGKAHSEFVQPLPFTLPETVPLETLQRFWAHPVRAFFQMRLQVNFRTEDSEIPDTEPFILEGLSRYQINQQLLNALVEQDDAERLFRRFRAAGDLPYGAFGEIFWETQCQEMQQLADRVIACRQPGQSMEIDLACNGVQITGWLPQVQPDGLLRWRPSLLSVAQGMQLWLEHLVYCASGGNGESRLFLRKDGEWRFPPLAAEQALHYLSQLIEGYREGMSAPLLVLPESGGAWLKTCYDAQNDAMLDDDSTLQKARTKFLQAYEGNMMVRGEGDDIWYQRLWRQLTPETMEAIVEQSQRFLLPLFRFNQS
T1 sequence (P08394 whole entry): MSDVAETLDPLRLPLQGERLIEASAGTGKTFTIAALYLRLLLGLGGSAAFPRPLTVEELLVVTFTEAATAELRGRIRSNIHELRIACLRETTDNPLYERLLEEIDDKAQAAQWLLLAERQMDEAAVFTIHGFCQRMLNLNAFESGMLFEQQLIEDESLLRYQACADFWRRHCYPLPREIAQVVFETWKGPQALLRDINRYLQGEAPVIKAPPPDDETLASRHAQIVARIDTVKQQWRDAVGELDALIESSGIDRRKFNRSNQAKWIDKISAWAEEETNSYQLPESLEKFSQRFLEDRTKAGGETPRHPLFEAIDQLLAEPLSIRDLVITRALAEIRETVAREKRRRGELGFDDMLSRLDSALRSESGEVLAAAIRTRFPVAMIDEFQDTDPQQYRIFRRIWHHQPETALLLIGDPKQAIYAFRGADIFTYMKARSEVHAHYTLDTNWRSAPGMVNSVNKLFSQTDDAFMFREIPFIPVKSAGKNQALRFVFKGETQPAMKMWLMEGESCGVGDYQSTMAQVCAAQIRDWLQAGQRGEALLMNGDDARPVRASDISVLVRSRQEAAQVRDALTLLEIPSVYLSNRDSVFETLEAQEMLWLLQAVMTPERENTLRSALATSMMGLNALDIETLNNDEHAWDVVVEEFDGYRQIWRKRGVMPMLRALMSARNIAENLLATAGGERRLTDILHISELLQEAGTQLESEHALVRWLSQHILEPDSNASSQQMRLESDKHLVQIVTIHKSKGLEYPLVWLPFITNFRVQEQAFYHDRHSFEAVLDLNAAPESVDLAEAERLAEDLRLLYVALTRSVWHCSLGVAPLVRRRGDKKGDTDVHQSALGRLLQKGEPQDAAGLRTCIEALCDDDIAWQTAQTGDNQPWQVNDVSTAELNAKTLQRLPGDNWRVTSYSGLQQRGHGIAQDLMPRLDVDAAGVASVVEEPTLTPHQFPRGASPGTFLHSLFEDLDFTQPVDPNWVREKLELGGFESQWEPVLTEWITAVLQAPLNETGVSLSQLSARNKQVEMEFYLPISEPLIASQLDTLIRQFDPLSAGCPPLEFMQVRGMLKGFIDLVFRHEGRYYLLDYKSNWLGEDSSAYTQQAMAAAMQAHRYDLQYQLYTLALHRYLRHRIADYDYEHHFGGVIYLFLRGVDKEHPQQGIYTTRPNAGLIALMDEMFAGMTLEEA

[2] = Counterscreen for AddAB inhibitors: absorbance-based bacterial cell-based high throughput dose response assay for inhibitors of bacterial viability. [Related pubchem assays (depositor defined):AID435030, AID449728, AID449731, AID488942, AID488955, AID488956]; type: functional
[3] = microbe, parasite or virus in culture; type: functional; details: Mycobacterium tuberculosis
[4] = target: High affinity nerve growth factor receptor (Homo sapiens, UniProt P04629); type: functional;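 also: NTRK1 tested as one member of a kinome-wide profiling panel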
Chain of High affinity nerve growth factor receptor (P04629 whole entry): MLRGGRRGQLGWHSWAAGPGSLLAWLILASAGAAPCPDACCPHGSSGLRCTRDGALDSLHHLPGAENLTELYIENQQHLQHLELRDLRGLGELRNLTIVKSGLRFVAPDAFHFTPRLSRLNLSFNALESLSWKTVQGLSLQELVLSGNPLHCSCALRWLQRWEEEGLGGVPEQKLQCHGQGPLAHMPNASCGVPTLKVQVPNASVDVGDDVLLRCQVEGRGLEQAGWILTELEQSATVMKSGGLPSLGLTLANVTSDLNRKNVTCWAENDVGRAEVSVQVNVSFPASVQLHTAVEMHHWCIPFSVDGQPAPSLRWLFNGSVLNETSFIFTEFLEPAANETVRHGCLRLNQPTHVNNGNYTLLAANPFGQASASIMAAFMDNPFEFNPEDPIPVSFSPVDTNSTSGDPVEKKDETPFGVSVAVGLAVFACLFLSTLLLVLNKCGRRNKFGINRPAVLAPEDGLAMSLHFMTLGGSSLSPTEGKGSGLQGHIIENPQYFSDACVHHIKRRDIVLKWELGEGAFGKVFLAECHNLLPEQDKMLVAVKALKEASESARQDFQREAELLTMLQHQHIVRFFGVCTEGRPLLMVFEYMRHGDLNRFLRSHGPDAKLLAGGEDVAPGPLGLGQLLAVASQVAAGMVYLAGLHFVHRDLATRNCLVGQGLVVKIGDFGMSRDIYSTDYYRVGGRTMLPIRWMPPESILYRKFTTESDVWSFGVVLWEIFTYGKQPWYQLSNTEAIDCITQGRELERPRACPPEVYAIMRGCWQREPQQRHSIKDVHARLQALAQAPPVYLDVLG

## CC(C)CC(=O)NC(c1cccs1)c1ccc2cccnc2c1O (centres undefined)
[1]
  IC50: > 119 µM (inactive)
[2]
  IC50: > 119 µM (inactive)

## CCOC(=O)c1ccc(NC2=CC(=O)C(=O)c3ccccc32)cc1
[3]
  CC50: 21.1 µM (active)

## NC1CCC(Nc2nc(Cl)cc(-c3c[nH]c4ncccc34)n2)CC1 (centres undefined)
[4]
  Ki: > 3.16 µM (inactive)
